In brackets after ≈: the same amount, converted by molar mass. Where two headings read alike, the source gives them in different places.

These results are taken from patent publication US11529354B2, “Methods and compositions for the treatment of tuberculosis” (PRESIDENT AND FELLOWS OF HARVARD COLLEGE, priority 2017, dated 2022).

Data set [1] relates to Bacillus Calmette-Guérin (BCG). Nature of the data set: organism not typed. It counts as cell-based, Mycobacterium bovis.
The test system of data set [2] is clinical Mycobacterium tuberculosis strains (HsRs: 90#, 140#, 74#). Nature of the data set: microbe, parasite or virus in culture. In kind it is cell-based.
Another data set relates to M. xenopi BZ-23. As to the kind of experiment: MIC on closely related bacteria: M. xenopi. It counts as cell-based. The following applies: Mycobacterium xenopi, BZ23.
The test system of the next data set is MTB H37Rv. As to the kind of experiment: microbe, parasite or virus in culture. It counts as cell-based, Mycobacterium tuberculosis. Particulars: susceptible H37Rv.
The subject of a further data set is M. abscessus BZ-24. As to the kind of experiment: MIC on closely related bacteria: M. abscessus. It counts as cell-based. Particulars: Mycobacteroides abscessus, BZ24.
In the next data set the test system is M. scrofulaceum BZ-20. Nature of the data set: MIC on closely related bacteria: M. scrofulaceum. It counts as cell-based. Particulars: Mycobacterium scrofulaceum, BZ20.
The next data set relates to M. avium A209. Nature of the data set: MIC on closely related bacteria: M. avium. In kind it is cell-based. The following applies: Mycobacterium avium.
The subject of the next data set is M. terrae BZ-15. As to the kind of experiment: MIC on closely related bacteria: M. terrae. The following applies: Mycolicibacter terrae, BZ15. In kind it is cell-based.
For a further data set, the system named is M. cheelonae BZ-4. As to the kind of experiment: MIC on closely related bacteria: M. cheelonae. In kind it is cell-based.
Data set [3] concerns intracellular BCG within macrophages. In kind it is cell-based, Mycobacterium bovis.
Data set [4] deals with GFP-expressing BCG in infected THP-1 cells. As to the kind of experiment: microbe, parasite or virus in culture. It counts as cell-based. The following applies: Mycobacterium tuberculosis variant bovis BCG, THP-1, read-out: IC50, growth of GFP-expressing BCG in infected THP-1 cells.
The next data set can be described thus: in vitro. The following applies: human.
A short description of a further data set: MTT cytotoxicity assay. The following applies: human. (Formazan colour is commonly taken as a measure of viable cells.)
Where [5] appears, read: read-out: MIC from in vitro validation.
Where [6] appears, read: read-out: MIC from in vitro validation on BCG.

Regarding `Cc1ccc2[nH]c3c(c2c1)CCCC3NCc1ccccc1` (centres unmarked) [CAS 118498-98-9, N-benzyl-6-methyl-2,3,4,9-tetrahydro-1H-carbazol-1-amine], the MIC in data set [1] (setting [5]) was 32 µg/mL (≈ 110 µM); in data set [2] it was 6.4 µg/mL (≈ 22 µM); in [2] (strain 74#, HsRs, read-out: MIC), 6.4 µg/mL (≈ 22 µM); in data set [2] (strain 140#, HsRs, read-out: MIC), 3.2 µg/mL (≈ 11 µM).

For the compound `O=c1/c(=C/c2cc(Br)ccc2F)sc2nc3ccccc3n12` [CAS 292169-72-3, (Z)-2-(5-Bromo-2-fluorobenzylidene)benzo[4,5]imidazo[2,1-b]thiazol-3(2H)-one], the MIC in data set [1] (setting [5]) was more than 128 µg/mL.

On to `O=C1CC(c2cccc(O)c2)Nc2ccc3ccccc3c21` (centres unmarked) [CAS 333759-52-7, 3-(3-hydroxyphenyl)-3,4-dihydrobenzo[f]quinolin-1(2H)-one], for which the MIC in data set [1] (setting [5]) is more than 128 µg/mL.

Regarding `O=[N+]([O-])c1cccc(CNC2CCCc3ccccc32)c1` (centres unmarked) [CAS 353779-33-6, N-(3-nitrobenzyl)-1,2,3,4-tetrahydronaphthalen-1-amine], in data set [1] (setting [5]), the MIC turned out to be 128 µg/mL (≈ 453 µM).

On to `O=[N+]([O-])c1ccccc1CNCCc1c[nH]c2ccccc12` [CAS 355816-45-4, 2-(1H-indol-3-yl)-N-(2-nitrobenzyl)ethanamine], for which, in data set [1] (setting [5]), the MIC was 128 µg/mL (≈ 433 µM).

For the compound `COc1ccc(N2COc3ccc4cc(Br)ccc4c3C2)cc1` [CAS 376374-34-4, 8-bromo-2-(4-methoxyphenyl)-2,3-dihydro-1H-naphtho[1,2-e][1,3]oxazine], the MIC in data set [1] (setting [5]) turned out to be 128 µg/mL (≈ 346 µM).

Regarding `O=C(O)C1C2C(=O)N(Cc3ccccn3)C[C@]23C=C[C@H]1O3` (stereo partly drawn) [CAS 1164528-69-1, (3aS,6R)-1-oxo-2-(pyridin-2-ylmethyl)-1,2,3,6,7,7a-hexahydro-3a,6-epoxyisoindole-7-carboxylic acid], the MIC in data set [1] (setting [5]) is more than 128 µg/mL.

On to `c1ccc2cc(OCCOCCOc3ccc4ccccc4c3)ccc2c1` [NSC 37219, 2-[2-(2-naphthalen-2-yloxyethoxy)ethoxy]naphthalene], for which the MIC in [1] (setting [6]) amounted to 80 µg/mL (≈ 223 µM).

Take `O=C(Nc1cccc(-c2nc3ccccc3[nH]2)c1)c1ccc(C(=O)Nc2cccc(-c3nc4ccccc4[nH]3)c2)cc1` [NSC 61610, 1-N,4-N-bis[3-(1H-benzimidazol-2-yl)phenyl]benzene-1,4-dicarboxamide]: the MIC in data set [1] (setting [6]) worked out at 40 µg/mL (≈ 72.9 µM).

For the compound `O=C(Nc1ccc(Oc2ccc(NC(=O)Nc3ccccc3Cl)cc2)cc1)Nc1ccccc1Cl` [NSC 80731, 1-(2-chlorophenyl)-3-[4-[4-[(2-chlorophenyl)carbamoylamino]phenoxy]phenyl]urea], the MIC in [1] (setting [6]) turned out to be 80 µg/mL (≈ 158 µM).

In the case of `CO[C@@H]1[C@@H](OC(=O)c2ccc(C)[nH]2)[C@@H](O)[C@H](Oc2ccc3c(O)c(NC(=O)c4ccc(O)c(CC=C(C)C)c4)c(=O)oc3c2Cl)OC1(C)C` [NSC 227186, [(3R,4S,5R,6S)-6-[8-chloro-4-hydroxy-3-[[4-hydroxy-3-(3-methylbut-2-enyl)benzoyl]amino]-2-oxochromen-7-yl]oxy-5-hydroxy-3-methoxy-2,2-dimethyloxan-4-yl]5-methyl-1H-pyrrole-2-carboxylate], the MIC against M. xenopi BZ-23 is 80 µg/mL (≈ 115 µM); in the data set on MTB H37Rv (Mycobacterium tuberculosis, Table 4, read-out: MIC) it was less than 0.625 µg/mL; in the data set with M. abscessus BZ-24, 40 µg/mL (≈ 57.4 µM); in the data set on M. scrofulaceum BZ-20 it was 80 µg/mL (≈ 115 µM); in data set [1] (setting [6]) it was 0.625 µg/mL (≈ 0.897 µM); against M. avium A209, 80 µg/mL (≈ 115 µM). Also, the values for the MIC against M. terrae BZ-15 and against M. cheelonae BZ-4 were more than 80 µg/mL and 40 µg/mL (≈ 57.4 µM), respectively. Moreover, in data set [1], the “performance on BCG compared with isoniazid and rifampicin” value was “performed at levels comparable of isoniazid and rifampicin”.

As usually defined, the IC50 is the concentration that gives 50% inhibition. With `Cn1ccc(=Nc2ccc(NC(=O)c3ccc(N=c4ccn(C)c5ccc([N+](=O)[O-])cc45)cc3)cc2)cc1` [NSC 260594, 4-[(1-methyl-6-nitroquinolin-4-ylidene)amino]-N-[4-[(1-methylpyridin-4-ylidene)amino]phenyl]benzamide], the MIC was more than 80 µg/mL with M. xenopi BZ-23; less than 0.625 µg/mL with MTB H37Rv (Mycobacterium tuberculosis, Table 7 and text, read-out: MIC); less than 0.625 µg/mL in the data set on MTB H37Rv (Table 4); less than 0.625 µg/mL against MTB H37Rv (Table 7 and text); more than 80 µg/mL with M. abscessus BZ-24; more than 80 µg/mL against M. scrofulaceum BZ-20. Also, the MIC in [1] (setting [6]) is 0.078 µg/mL (≈ 0.155 µM); in the data set on M. avium A209, 1.25 µg/mL (≈ 2.48 µM); with M. terrae BZ-15 it was 2.5 µg/mL (≈ 4.95 µM); in the data set on M. cheelonae BZ-4 it was more than 80 µg/mL. The “intracellular anti-TB activity against BCG” value in [3] was “time- and concentration-dependent anti-TB activity”. Moreover, in [1], the “performance on BCG compared with isoniazid and rifampicin” value is “performed at levels comparable of isoniazid and rifampicin”. For the same compound, the results for the half-maximal inhibitory concentration (IC50) (in data set [4]; in the data set “in vitro”) were 7.8 µg/mL (≈ 15.5 µM) and 7.5 µg/mL (≈ 14.9 µM), respectively.

For `O=[N+]([O-])c1ccc(C2CC(c3ccccc3)=Nc3ccccc3S2)cc1` (centres unmarked) [NSC 270738, 2-(4-nitrophenyl)-4-phenyl-2,3-dihydro-1,5-benzothiazepine], the MIC in [1] (setting [6]) is 5 µg/mL (≈ 13.9 µM).

In “MTT cytotoxicity assay”, `CO[C@H]1/C=C/O[C@@]2(C)Oc3c(C)c(O)c4c(O)c(c(/C=N/N5CCN(C)CC5)c(O)c4c3C2=O)NC(=O)/C(C)=C\C=C\[C@H](C)[C@H](O)[C@@H](C)[C@@H](O)[C@@H](C)[C@H](OC(C)=O)[C@@H]1C` [Rifampicin, reference compound] returned a concentration for half-maximal inhibition (IC50) of 1 µg/mL (≈ 1.22 µM).
